Test results from ChEMBL document CHEMBL5154887, “Novel CRBN-Recruiting Proteolysis-Targeting Chimeras as Degraders of Stimulator of Interferon Genes with In Vivo Anti-Inflammatory Efficacy” (J Med Chem, 2022).
Active and inactive are the calls of the source. No cut-off for these calls is given here.

Tests used:
Mus musculus [1] = assay: In vivo inhibition of STING signalling pathway in ip dosed cisplatin-induced acute kidney injury in C57BL/6J mouse model assessed as reduction in IL-6 expression in blood of mouse eyeballs pretreated for 1 hr followed by cisplatin administration and measured after 72 hrs by ELISA; type: functional, organism-based; details: time 73.0 hrs, DDE = dose-dependent effect
Mus musculus [2] = assay: Renal protective activity against cisplatin-induced acute kidney injury in C57BL/6J mouse model assessed as improvement in renal blood flow velocity at 60 mg/kg, ip by B-mode ultrasound scanner analysis; type: functional, organism-based
[3] = Toxicity in cisplatin-induced acute kidney injury in C57BL/6J mouse model assessed as marked inflammatory cell exudation in kidney at 30 to 60 mg/kg, ip pretreated for 1 hr followed by cisplatin administration and measured after 72 hrs by H and E staining based analysis; type: organism-based; details: in vivo, 73 h, dose 30-60 mg/kg
[4] = Toxicity in cisplatin-induced acute kidney injury in C57BL/6J mouse model assessed as tubular epithelial edema in kidney at 30 to 60 mg/kg, ip pretreated for 1 hr followed by cisplatin administration and measured after 72 hrs by H and E staining based analysis; type: organism-based; details: in vivo, 73 h, dose 30-60 mg/kg
[5] = Toxicity in cisplatin-induced acute kidney injury in C57BL/6J mouse model assessed as vacuole like changes in kidney at 30 to 60 mg/kg, ip pretreated for 1 hr followed by cisplatin administration and measured after 72 hrs by H and E staining based analysis; type: organism-based; details: in vivo, 73 h, dose 30-60 mg/kg
[6] = Toxicity in cisplatin-induced acute kidney injury in C57BL/6J mouse model assessed as tubular obstruction in kidney at 30 to 60 mg/kg, ip pretreated for 1 hr followed by cisplatin administration and measured after 72 hrs by H and E staining based analysis; type: organism-based; details: in vivo, 73 h, dose 30-60 mg/kg
[7] = Toxicity in cisplatin-induced acute kidney injury in C57BL/6J mouse model assessed as morphological abnormalities in liver at 30 to 60 mg/kg, ip pretreated for 1 hr followed by cisplatin administration and measured after 72 hrs by H and E staining based analysis; type: organism-based; details: in vivo, 73 h, dose 30-60 mg/kg
[8] = Toxicity in cisplatin-induced acute kidney injury in C57BL/6J mouse model assessed as morphological abnormalities in heart at 30 to 60 mg/kg, ip pretreated for 1 hr followed by cisplatin administration and measured after 72 hrs by H and E staining based analysis; type: organism-based; details: in vivo, 73 h, dose 30-60 mg/kg
Mus musculus [9] = assay: Renal protective activity against cisplatin-induced acute kidney injury in C57BL/6J mouse model assessed as reduction in abnormal signal intensities of T2 at 60 mg/kg, ip by NMR based analysis; type: functional, organism-based
Mus musculus [10] = assay: Renal protective activity against cisplatin-induced acute kidney injury in C57BL/6J mouse model assessed as clear cortical medullary demarcation at 60 mg/kg, ip by NMR based analysis; type: functional, organism-based
Mus musculus [11] = assay: Renal protective activity against cisplatin-induced acute kidney injury in C57BL/6J mouse model assessed as reduction in kidney swelling at 60 mg/kg, ip by NMR based analysis; type: functional, organism-based
[12] = Half life in Sprague-Dawley rat at 2 mg/kg, iv measured upto 48 hrs by UPLC-triple quadrupole MS analysis; type: ADME, organism-based; details: in vivo
[13] = Tmax in Sprague-Dawley rat at 2 mg/kg, iv measured upto 48 hrs by UPLC-triple quadrupole MS analysis; type: ADME, organism-based; details: in vivo
[14] = Clearance in Sprague-Dawley rat at 2 mg/kg, iv measured upto 48 hrs by UPLC-triple quadrupole MS analysis; type: ADME, organism-based; details: in vivo
[15] = Cmax in Sprague-Dawley rat at 2 mg/kg, iv measured upto 48 hrs by UPLC-triple quadrupole MS analysis; type: ADME, organism-based; set-up: dose 2 mg/kg, time < 48 hrs, route iv; details: in vivo
[16] = AUC (0 to t) in Sprague-Dawley rat at 20 mg/kg, po measured upto 48 hrs by UPLC-triple quadrupole MS analysis; type: ADME, organism-based; set-up: dose 20 mg/kg, time < 48 hrs, route po; details: in vivo
[17] = AUC (0 to infinity) in Sprague-Dawley rat at 20 mg/kg, po measured upto 48 hrs by UPLC-triple quadrupole MS analysis; type: ADME, organism-based; set-up: dose 20 mg/kg, time < 48 hrs, route po; details: in vivo
[18] = MRT (0 to t) in Sprague-Dawley rat at 20 mg/kg, po measured upto 48 hrs by UPLC-triple quadrupole MS analysis; type: ADME, organism-based; details: in vivo
[19] = MRT (0 to infinity) in Sprague-Dawley rat at 20 mg/kg, po measured upto 48 hrs by UPLC-triple quadrupole MS analysis; type: ADME, organism-based; details: in vivo
[20] = Half life in Sprague-Dawley rat at 20 mg/kg, po measured upto 48 hrs by UPLC-triple quadrupole MS analysis; type: ADME, organism-based; details: in vivo
[21] = Tmax in Sprague-Dawley rat at 20 mg/kg, po measured upto 48 hrs by UPLC-triple quadrupole MS analysis; type: ADME, organism-based; details: in vivo
[22] = Clearance in Sprague-Dawley rat at 20 mg/kg, po measured upto 48 hrs by UPLC-triple quadrupole MS analysis; type: ADME, organism-based; details: in vivo
[23] = Apparent volume of distribution in Sprague-Dawley rat at 20 mg/kg, po measured upto 48 hrs by UPLC-triple quadrupole MS analysis; type: ADME, organism-based; details: in vivo
[24] = Cmax in Sprague-Dawley rat at 20 mg/kg, po measured upto 48 hrs by UPLC-triple quadrupole MS analysis; type: ADME, organism-based; set-up: time < 48 hrs, dose 20 mg/kg, route po; details: in vivo
[25] = Oral bioavailability in Sprague-Dawley rat at 20 mg/kg measured upto 48 hrs by UPLC-triple quadrupole MS analysis; type: ADME, organism-based; details: in vivo
[26] = target: Protein cereblon/Stimulator of interferon genes protein (Homo sapiens, UniProt Q96SW2+Q86WV6); assay: Protac activity at CRBN/STING in human THP-1 cells assessed as increase in STING degradation at 10 uM measured after 4 to 48 hrs by Western blot analysis; type: cell-based; details: time 4-48 hrs, TDE = time-dependent effect
[27] = target: Stimulator of interferon genes protein (Homo sapiens) (UniProt Q86WV6); assay: Inhibition of STING pathway in human THP-1 cells assessed as inhibition of cGAMP-triggered NF-kappaB p-p65 expression preincubated for 2 hrs followed by cGAMP stimulation and measured after 24 hrs by Western blot analysis; type: cell-based; details: dose 0-20 µM, time 26.0 hrs, DDE = dose-dependent effect
Mus musculus [28] = assay: Antiinflammatory activity against cisplatin-induced acute kidney injury in C57BL/6J mouse model assessed as reduction in ischemic symptoms at 30 mg/kg, ip pretreated for 1 hr followed by cisplatin administration and measured after 72 hrs relative to control; type: functional, organism-based; details: time 73.0 hrs
[29] = Toxicity in C57BL/6J mouse model of cisplatin-induced acute kidney injury assessed as survival rate at 30 mg/kg, ip pretreated for 1 hr followed by cisplatin administration and measured after 72 hrs relative to control; type: organism-based; details: in vivo, 73 h
[30] = Toxicity in cisplatin-induced acute kidney injury in C57BL/6J mouse model assessed as illegible tubular structure in kidney at 30 to 60 mg/kg, ip pretreated for 1 hr followed by cisplatin administration and measured after 72 hrs by H and E staining based analysis; type: organism-based; details: in vivo, 73 h, dose 30-60 mg/kg

Sequence of Stimulator of interferon genes protein (Homo sapiens) (Q86WV6 whole entry): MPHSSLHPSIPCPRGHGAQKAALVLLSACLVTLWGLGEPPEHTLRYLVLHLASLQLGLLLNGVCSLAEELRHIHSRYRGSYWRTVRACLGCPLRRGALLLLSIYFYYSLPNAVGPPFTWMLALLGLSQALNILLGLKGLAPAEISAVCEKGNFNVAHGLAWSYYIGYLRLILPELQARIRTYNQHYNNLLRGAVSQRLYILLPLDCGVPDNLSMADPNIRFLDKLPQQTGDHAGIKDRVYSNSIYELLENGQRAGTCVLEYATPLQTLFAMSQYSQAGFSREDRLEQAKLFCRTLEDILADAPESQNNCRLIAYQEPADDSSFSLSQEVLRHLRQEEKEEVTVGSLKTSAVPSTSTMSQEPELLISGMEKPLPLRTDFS
Sequence of Protein cereblon/Stimulator of interferon genes protein (Q86WV6 whole entry, looked up): as the sequence (Q86WV6 whole entry) above
Sequence of Protein cereblon/Stimulator of interferon genes protein (Q96SW2 whole entry, looked up): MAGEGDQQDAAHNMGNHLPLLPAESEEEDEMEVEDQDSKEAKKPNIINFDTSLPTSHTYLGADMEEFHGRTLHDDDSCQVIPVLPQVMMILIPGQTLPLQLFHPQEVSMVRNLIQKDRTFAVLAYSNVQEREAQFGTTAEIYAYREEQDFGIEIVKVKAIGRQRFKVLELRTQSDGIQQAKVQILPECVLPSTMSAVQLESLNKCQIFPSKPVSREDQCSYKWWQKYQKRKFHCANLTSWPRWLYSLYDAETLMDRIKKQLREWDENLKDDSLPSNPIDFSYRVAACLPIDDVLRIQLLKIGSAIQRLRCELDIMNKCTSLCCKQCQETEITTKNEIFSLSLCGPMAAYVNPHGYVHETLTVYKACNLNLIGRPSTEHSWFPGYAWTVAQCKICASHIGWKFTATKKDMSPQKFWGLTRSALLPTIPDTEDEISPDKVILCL

O=C(/C=C/C(=O)Nc1ccc(NC(=O)c2ccc([N+](=O)[O-])o2)cc1)NCCCCCCNc1cccc2c1C(=O)N(C1CCC(=O)NC1=O)C2=O (stereo not given)
inhibition (Mus musculus [1]): Dde
Activity (Mus musculus [2]): Active
Activity [3]: Non-Toxic
Activity [4]: Non-Toxic
Activity [5]: Non-Toxic
Activity [6]: Non-Toxic
Activity [7]: Non-Toxic
Activity [8]: Non-Toxic
Activity (Mus musculus [9]): Active
Activity (Mus musculus [10]): Active
Activity (Mus musculus [11]): Active
half-life [12]: 3.86 h
Tmax [13]: 4.98 min
clearance [14]: 6.8 L/h/kg
Cmax [15]: 318 ng/mL
AUC(0-t) at 48 h [16]: 52.2 ng·h/mL
AUC(0-inf) [17]: 55.7 ng·h/mL
MRT last at 48 h [18]: 7.6 h
MRT inf [19]: 11.7 h
half-life [20]: 7.36 h
Tmax [21]: 3.71 h
CL/F [22]: 429 L/h/kg
Vz [23]: 4480.43 L/kg
Cmax [24]: 8.37 ng/mL
bioavailability [25]: 2.15%
Activity [26]: Tde
inhibition [27]: Dde
Activity (Mus musculus [28]): Active
Survival [29]: 89%
Activity [30]: Non-Toxic
